Experimental data as given in patent US20240325400A1, “Composition Comprising Skin-Specific T Cell Inhibitor as Active Ingredient for Prevention or Treatment of Atopic Dermatitis” (INDUSTRY-ACADEMIC COOPERATION FOUNDATION, YONSEI UNIVERSITY, priority 2021, published 2024).

Assays:
[1] = tested on: cells isolated from normal skin tissue; experiment: Toxicity assay using CCK-8 reagent (cell viability); format: cell-based; conditions: for cell viability: cells from normal skin tissue, overnight, CCK-8
Procedure: Thereafter, 10 μL of Cell Counting Kit-8 reagent (Dojindo Lot. PR863) was added to each well of the 96-well plate, and after 2 hours, the safety and toxicity of the drug to the normal skin tissue were evaluated by measuring the absorbance at […].

serum total IgE = experiment: Serum total IgE by ELISA in atopic dermatitis mouse model; format: in vivo
Procedure: (§1) Then, in order to check changes in skin-specific T cells in each animal, single suspensions were prepared using the spleen, skin, and lymph nodes, and T-cells were stained using anti-CD3, anti-CD4, anti-CD8, and anti-CD45 antibodies. Flow cytometry was performed on skin-specific T cells using anti-CD69 and anti-CD103 antibodies, thereby observing the changes in number and distribution of skin-specific T cells by the application of the drug.
(§2) Blood was collected from the mouse heart and then centrifuged at 2,500 rpm for 15 minutes, and the obtained serum was used in the experiment. Then, total IgE was measured using the ELISA MAX™ Delux Set (BioLegend, San Diego, CA, USA) kit. Dermatophagoides farinae (DF)-specific IgE was measured by ELISA using a slight modification of the previously reported method. Briefly, 100 μL of 20 μg/mL DfE in 50 mmol/L carbonate buffer (pH 9.6, Sigma, St. Louis, MO, USA) per well was plated in a 96-well microtiter plate (Corning Inc., Corning)., NY, USA) and incubated overnight at 4° C. Each well was blocked with 3% skim milk in PBS (PBST) containing 0.05% Tween 20 for 1 hour at 37° C. After washing three times with PBST, each well was incubated with a serum sample (diluted to 1:20 [V/V] in 1% BSA) overnight at 4° C. […] The absorbance was measured at 450 nm with a microplate reader (TECAN, Salzburg, Austria).

[2] = tested on: Dermatophagoides farinae (DF)-specific IgE; experiment: Serum total DF-specific IgE by ELISA in atopic dermatitis mouse model; format: in vivo
Procedure: as §1
Blood was collected from the mouse heart, and then serum total DF-specific IgE (ng/mL) (A450) was measured in a 96-well plate (Corning Inc., Corning, NY, USA) using the ELISA MAX™ Delux Set (BioLegend, San Diego, CA, USA) kit.
as §2, with “C.” for “C. Each well was blocked with 3% skim milk in PBS (PBST) containing 0.05% Tween 20 for 1 hour at 37° C. After washing three times with PBST, each well was incubated with a serum sample (diluted to 1:20 [V/V] in 1% BSA) overnight at 4° C.”

[3] = tested on: NC/Nga mice with induced atopic dermatitis; experiment: H&E staining of skin of NC/Nga mice (eosinophil count, epidermal thickness); format: in vivo, mouse
Procedure: as §1
In atopic dermatitis, the eosinophil count is observed to be characteristically high, making it a representative biological indicator that can explain the immunological mechanism of atopic dermatitis. Based on this fact, hematoxylin and eosin (H&E) staining in NC/Nga mice was performed. […] In addition, when atopic dermatitis occurs, the skin thickens due to an excessive inflammatory response.

[4] = tested on: T cells in skin-draining lymph nodes; experiment: FACS of T cell fractions in skin-draining lymph nodes of atopic dermatitis mouse model; format: in vivo
Procedure: as §1

T cells in the spleen = experiment: FACS of T cell fractions in spleen of atopic dermatitis mouse model; format: in vivo
Procedure: as §1

skin-specific T cells [5] = experiment: FACS of T cell fractions in skin of atopic dermatitis mouse model; format: in vivo
Procedure: as §1

skin-specific T cells [6] = experiment: FACS of skin-specific T cells in human skin with atopic dermatitis lesions; format: cell-based; conditions: skin immune cells and skin lesions of atopic dermatitis patients, 50 μM and 100 μM, FIG. 13
Procedure: To verify the effect of the candidate drug on skin-specific T cells in human skin tissue, a single suspension was prepared using the skin from an atopic dermatitis patient. T cells were stained using anti-CD3, anti-CD4, anti-CD8 and anti-CD45 antibodies, and flow cytometry was performed on skin-specific T cells using anti-CD69 and anti-CD103 antibodies, which are skin TRM markers, thereby observing the changes in number and distribution of skin-specific T cells by the application of the drug.

[7] = 100 μM, compared to 0.1% dexamethasone

## idelalisib
[1]; 50 μM
  cell viability: ≥ 90%
[1]; 100 μM
  cell viability: ≥ 90%
[1]; CCK-8, FIG. 4
  toxicity in normal skin tissue: no significant toxicity
Serum total IgE; 50 μM and 100 μM, ELISA, FIG. 7
  serum total IgE level: decreased the total IgE level in a dose-dependent manner
Serum total IgE; [7]
  decrease in serum total IgE level compared to positive control: significantly greater
[2]; 50 μM and 100 μM, ELISA, FIG. 8
  total DF-specific IgE level: reduced the level of total DF-specific IgE in a dose-dependent manner
[2]; [7]
  total DF-specific IgE level compared to positive control: significantly decreased even compared to that in the 0.1% dexamethasone group
[3]; FIG. 9B
  epidermal thickness: decreased as the concentration of idelalisib increased
[3]; FIG. 9C
  eosinophil count: decreased depending on the idelalisib concentration
[4]; 100 μM, FIG. 10A
  proportion of CD3+ T cells in skin-draining lymph nodes: lowest proportion of CD3+ T cells
[4]; 100 μM, FIG. 10B
  fraction of CD3+ CD4+ CD103+ T cells in skin-draining lymph nodes: statistically significantly lowest
[4]; FIG. 10B
  fraction of T cells expressing CD69 among CD3+ CD4+ T cells in skin-draining lymph nodes: tended to decrease
T cells in the spleen; FIG. 11
  CD69+ T cells and CD103+ T cells in the spleen: decreased statistically significantly
  proportion of CD3+ and CD4+ T cells in the spleen: decreased in a dose-dependent manner
T cells in the spleen; spleen, compared to 0.1% dexamethasone
  CD69+ T cells and CD103+ T cells compared to positive control: significantly decreased in the idelalisib-treated group compared to the 0.1% dexamethasone group
skin-specific T cells [5]; 50 μM and 100 μM, FIG. 12
  proportions of CD3+ and CD4+ skin-specific T cells in the skin: significantly decreased in both the 50 μM and 100 μM idelalisib groups in a dose-dependent manner
skin-specific T cells [5]; FIG. 12
  CD69+ T cells and CD103+ T cells in the skin tissues: statistically significantly decreased
skin-specific T cells [5]; skin, compared to 0.1% dexamethasone
  proportions of skin-specific T cells compared to positive control: significantly decreased even compared to that in the 0.1% dexamethasone-treated group
skin-specific T cells [6]
  proportion of skin-specific T cells: significantly decreased in both the 50 μM and 100 μM idelalisib groups in a dose-dependent manner
